Reference: patent US20060115895A1, “Fish disease models and uses thereof” (priority 2002, published 2006)
Where two headings read alike, the source gives them in different places.

Columns and labels:
[1] = test system: zebrafish of tup background; assay: DMSO tolerance of zebrafish; type: in vivo
Protocol: Zebrafish of tup background were tested in batches of 10. DMSO was added to fish water on day 3 and fish examined daily up to day 9. […] Motoric behaviour was also normal.

[2] = test system: epilepsy induced in the fish; assay: anti-seizure effect in fish with induced epilepsy; type: in vivo; conditions: concentration in fish water
Text: Continuing with the example of epilepsy by way of illustration, in embodiments of this aspect of the present invention a known drug may be administered to the fish, for example sodium valproate. Epilepsy is then induced in the fish. Additional test substances, such as candidate chemicals, or genetic mutation may then be applied to the fish and assessed for their anti-epileptogenic effect. […] Any combination of these and/or other drugs or test substances may be arrayed in every possible combination and tested for synergistic efficacy. Appropriate doses vary from 1 nM to 100 mM, e.g. 0.1 μM to 10 mM, with 100 uM being a reasonable starting concentration to assess.

[3] = test system: interleukin 11 transgene (tetracycline inducible system); conditions: mouse, in vivo; cited from earlier work
fish reared in nicotine [4] = test system: fish reared in nicotine
Protocol: (§1) Fish were reared in nicotine from 2 dpf (immediately after hatching) to 7 d.p.f. at concentrations (in the fish water) of 0.5, 2.5, 5, 25, 50 ug/ml (5 fish per test group). The nicotine medium was then removed and replaced with E3M (embryo medium) at 7 d.p.f. They were then challenged at 8 d.p.f. with 2.5 ug/ml nicotine in 3% methyl cellulose.
Details of the toxicity dose/response experiment are given below: […]

fish reared in nicotine [5] = conditions: for fish attracted to nicotine impregnated methyl cellulose: previously bathed at 5 ug/ml, 5 fish per group; for response/preference to nicotine: challenged 8 d.p.f. with 2.5 ug/ml nicotine in 3% methyl cellulose
Protocol: as §1

[6] = 1% DMSO (10 ul/ml), added day 3, examined daily up to day 9

C[S+](C)[O-] [DMSO, dimethyl sulphoxide]
abnormality on detailed examination under dissecting microscope [1, 6]: no abnormality was detected
motoric behaviour [1, 6]: normal
DMSO concentration zebrafish can tolerate ([1]; final concentration in fish water): 1%

CN1C(=O)CN=C(c2ccccc2)c2cc(Cl)ccc21 [diazepam]
concentration showing therapeutic effects in monotherapy [2]: 35 µM

C[C@H]1c2cccc(O)c2C(=O)C2=C(O)[C@]3(O)C(=O)C(C(N)=O)=C(O)[C@@H](N(C)C)[C@@H]3[C@@H](O)[C@@H]21 [doxycycline]
toxicity to embryos treated in utero, pups or adults [3]: no apparent toxicity

CN1CCCC1c1cccnc1 (stereo not shown) [nicotine]
escape response when prodded (fish reared in nicotine [4]; 0.5 ug/ml, 3 d.p.f.): escape response as above
survival (fish reared in nicotine [4]; 0.5 ug/ml, 3 d.p.f.): all alive
escape response when prodded (fish reared in nicotine [4]; 0.5 ug/ml, 4 d.p.f.): escape response as above
survival (fish reared in nicotine [4]; 0.5 ug/ml, 4 d.p.f.): all alive
escape response when prodded (fish reared in nicotine [4]; 2.5 ug/ml, 3 d.p.f.): escape response as above
survival (fish reared in nicotine [4]; 2.5 ug/ml, 3 d.p.f.): all alive
escape response when prodded (fish reared in nicotine [4]; 2.5 ug/ml, 4 d.p.f.): escape response as above
survival (fish reared in nicotine [4]; 2.5 ug/ml, 4 d.p.f.): all alive
escape response when prodded (fish reared in nicotine [4]; 5.0 ug/ml, 3 d.p.f.): escape response as above
survival (fish reared in nicotine [4]; 5.0 ug/ml, 3 d.p.f.): all alive
escape response when prodded (fish reared in nicotine [4]; 5.0 ug/ml, 4 d.p.f.): escape response as above
survival (fish reared in nicotine [4]; 5.0 ug/ml, 4 d.p.f.): all alive
escape response when prodded (fish reared in nicotine [4]; 25 ug/ml, 3 d.p.f.): twitch but no escape response when prodded
survival (fish reared in nicotine [4]; 25 ug/ml, 3 d.p.f.): all alive
escape response when prodded (fish reared in nicotine [4]; 25 ug/ml, 4 d.p.f.): twitch but no escape response when prodded
survival (fish reared in nicotine [4]; 25 ug/ml, 4 d.p.f., 5 fish per group): 4 dead, 1 alive
escape response when prodded (fish reared in nicotine [4]; 50 ug/ml, 3 d.p.f.): twitch but no escape response when prodded
survival (fish reared in nicotine [4]; 50 ug/ml, 3 d.p.f.): all alive
survival (fish reared in nicotine [4]; 50 ug/ml, 4 d.p.f.): all, dead
toxicity (fish reared in nicotine [5]; 25 ug/ml in fish water from 2 dpf): Toxicity was seen
toxicity (fish reared in nicotine [5]; 50 ug/ml in fish water from 2 dpf): Toxicity was seen
fish attracted to nicotine impregnated methyl cellulose (fish reared in nicotine [5]; by 4 mins): 2 fish
fish attracted to nicotine impregnated methyl cellulose (fish reared in nicotine [5]; by 5 mins): 3 fish
fish attracted to nicotine impregnated methyl cellulose (fish reared in nicotine [5]; by 15 mins): 4 fish
response/preference to nicotine (fish reared in nicotine [5]; previously bathed in 0.5 ug/ml): no response/preference
response/preference to nicotine (fish reared in nicotine [5]; previously bathed in 2.5 ug/ml): no response/preference
